Measured values reported in patent US6511978B1, “Pyrrole derivatives useful for farnesyl transferase inhibitors and their preparations” (LG Life Sciences, Ltd., priority 1999, dated 2003).

Legend:
[1] = molecular target: T1, Ras farnesyl transferase (Homo sapiens, UniProt P49354+P49356); test: Ras farnesyl transferase enzyme inhibition, K-Ras substrate (H-Ras fused with polybasic lysine domain of K-Ras); assay type: biochemical; details: K-Ras substrate (fused protein of H-Ras with polybasic lysine domain of K-Ras); recombinant farnesyl transferase
T1 construct: made in house
Source text: (§1) In the present experiment, the improved Pompliano's method (see: Pompliano et al., Biochemistry, 31, 3800, 1992) was applied. Specifically, Ras farnesyl transferase produced by genetic recombination techniques was used, and fused protein of H-Ras(H-Ras-CVLS) substituted with polybasic lysine domain at C-terminus of K-Ras (see: Korean Patent Appln. No. 97-14409) was used as a substrate after it had been purified according to the known method(see, Chung et al., Biochimica et Biophysica Acta, 1129, 278, 1992).
(§2) The enzyme reaction was performed in 50 μl of 50 mM Sodium HEPES buffer solution containing 25 mM of potassium chloride, 25 mM of magnesium chloride, 10 mM of DTT and 50 μM of zinc chloride. 1.5 μM of Ras substrate protein, 0.15 μM of tritium-farnesylpyrophosphate and 4.5 nM of farnesyl transferase were used. More specifically, in the initial step, farnesyl transferase was added to the above buffer solution, reaction was maintained for 30 minutes at 37° C. and then the reaction was stopped by adding 1 ml of ethanol solution containing 1M HCl. The formed precipitates were adsorbed to GF/B filter using Hopper harvestor(Hopper #FH 225V) for filter-binding, washed with ethanol, and then radioactivity of the dried filter was measured using LKB β counter. Enzyme titer was measured in the unsaturated state of substrate where the concentration of Ras substrate protein and farnesyl transferase have quantitative relationship. The compound according to the present invention dissolved in dimethyl sulfoxide(DMSO) was added to the reaction solution in an amount of less than 5% of the total reaction solution, and then the enzyme inhibitory activity thereof was measured. The enzyme inhibitory activity was represented by percentage of the amount of farnesyl incorporated into the Ras substrate protein in the presence of the test compound to that in the absence of the test compound. IC50 of the test compound was defined as the concentration at which 50% of the enzyme activity was inhibited. To evaluate the selective enzyme inhibitory activity of the compound according to the present invention, inhibitory activity on geranylgeranyl transferase was measured. Geranylgeranyl transferase was purified from bovine brain according to the modified Schaber's method(Schaber et al., J. Biol. Chem. 265, 14701, 1990), and substantially the same experimental procedure as that for farnesyl transferase was performed on geranylgeranyl pyrophosphate and Ras-CVIL substrate protein.

[2] = molecular target: T2, Ras farnesyl transferase (Rattus norvegicus, UniProt Q02293+Q04631); test: In vivo (intracellular) Ras farnesylation inhibition in Rat2 cell line transformed with H-Ras fused with polybasic lysine domain of K-Ras; assay type: cell-based; details: Rat2 cells transformed with H-Ras/K-Ras polybasic domain fused protein; concentration inhibiting 50% of farnesyl binding; read-out: K-Ras CIC50
T2 construct: endogenous in cells; host or cells: Rat2 fibroblasts transformed with C-Harvey-Ras or with the H-Ras/K-Ras polybasic-domain fusion
Description: (§3) In the present experiment, Rat2 cell line which expresses C-Harvey-Ras protein having transforming activity and Rat2 cell line(Korean patent application No. 97-14409) which is transformed with fused protein of H-Ras substituted with polybasic lysine domain at C-terminus of K-Ras were used. The experiment was performed by the modified Declue's method(Declue. J. E. et al., Cancer Research, 51, 712, 1991) as follows.
(§4) 3×10^5 cells of transformed Rat2 fibroblast cell line were sprayed on 60 mm cell cultivation dish and cultivated for 48 hours in a cell incubator at 37° C. and after 50% or more of density was reached, it was treated with the test compounds. The compound according to the present invention dissolved in dimethylsulfoxide(DMSO) was used. 1% concentration of dimethylsulfoxide was used in both control and test groups. After 4 hours from the treatment with the compound, methionine labeled with 150 μCi of radioactive isotope [^35S] per 1 ml of medium was added and after cultivating for 20 hours, the cells were washed with physiological saline water. The cells were lysed using 1 ml of cold cell lysis buffer solution(50 mM of Sodium HEPES buffer solution containing 5 mM of magnesium chloride, 1 mM of DTT, 1% NP 40, 1 mM of EDTA, 1 mM of PMSF, 2 μM of leupeptin, 2 μM of pepstatin A and 2 μM of antipain) and the supernatant wherein the cells were lysed was obtained by high-velocity centrifugation of 12,000 g×5 minutes. The amount of radioisotope in the supernatant was measured and standardized to obtain a quantitative result in immunoprecipitation reaction and then, Y13-259, a monoclonal antiboby specifically binding to Ras protein(see: Furth, M. E. et al., J. Virol, 43, 294, 1982) was added and reacted for 15 hours at 4° C. Protein A(combined with goat anti-murine immunoglobulin antibody)-agarose suspension was added to the solution and reacted for 1 hour at 4° C. and then, to remove the unspecific binding product, immunoprecipitates were washed with a buffer solution (50 mM Tris chloride buffer solution containing 50 mM of sodium chloride, 0.5% of sodium dioxycholate, 0.5% of NP 40 and 0.1% of SDS). The precipitates were added to a buffer solution for electrophoresis and boiled and then, electrophoresis was performed using 13.5% of SDS polyacrylamide gel. After electrophoresis, the gel was fixed and dried. Then, the gel was exposed to X-ray film, developed and printed. From the result of the experiment, intensities of band of protein combined with or without farnesyl of Ras protein was measured, and the concentration of the test compound inhibiting 50% of farnesyl binding was defined as CIC50, an in vivo Ras farnesyl transferase inhibitory activity. IC50 means the data from Experimental 1 and CIC50 means the data from Experimental 2.

[3] = molecular target: T1, Ras farnesyl transferase; test: Ras farnesyl transferase enzyme inhibition, H-Ras substrate; assay type: biochemical; details: H-Ras substrate protein; recombinant farnesyl transferase; 30 minutes at 37° C.
Source text: as §1, §2

[4] = molecular target: T2, Ras farnesyl transferase; test: In vivo (intracellular) Ras farnesylation inhibition in Rat2 cell line expressing C-Harvey-Ras; assay type: cell-based; details: Rat2 cells expressing C-Harvey-Ras; concentration inhibiting 50% of farnesyl binding; read-out: H-Ras CIC50
Description: as §3, §4

| Structure (SMILES) | IC50 [1] [nM] | IC50 [2] [nM] | IC50 [3] [nM] | IC50 [4] [nM] |
| --- | --- | --- | --- | --- |
| CSc1c(C(=O)N2CCN(C)CC2)c(-c2cccc3ccccc23)cn1Cc1cncn1Cc1ccc2c(c1)OCO2 [Example 19, 1-[1-(3,4-methylenedioxybenzyl)-1H-imidazol-5-ylmethyl]-3-(4-methylpiperazin-1-yl)carbonyl-2-methylthio-4-(naphthalen-1-yl)-1H-pyrrole] | < 2 | > 10000 | < 0.95 | < 12.5 |
| CN1CCN(C(=O)c2cn(Cc3c(I)ncn3Cc3ccc4c(c3)OCO4)cc2-c2cccc3ccccc23)CC1 [Example 20, 1-[4-iodo-1-(3,4-methylenedioxybenzyl)-1H-imidazol-5-ylmethyl]-3-(4-methylpiperazin-1-yl)carbonyl-4-(naphthalen-1-yl)-1H-pyrrole] | < 18 | > 10000 | < 3.5 | > 25 |
| CN1CCN(C(=O)c2cn(Cc3c([N+](=O)[O-])ncn3Cc3ccc4c(c3)OCO4)cc2-c2cccc3ccccc23)CC1 [Example 21, 1-[1-(3,4-methylenedioxybenzyl)-4-nitro-1H-imidazol-5-ylmethyl]-3-(4-methylpiperazin-1-yl)carbonyl-4-(naphthalen-1-yl)-1H-pyrrole] | > 30 | > 10000 | > 30 | > 30 |
| CON1CCN(C(=O)c2cn(Cc3c(C)ncn3Cc3ccc4c(c3)OCO4)cc2-c2cccc3ccccc23)CC1 [Example 23, 3-(4-methoxypiperazin-1-yl)carbonyl-1-[4-methyl-1-(3,4-methylenedioxybenzyl)-1H-imidazol-5-ylmethyl]-4-(naphthalen-1-yl)-1H-pyrrole] | > 30 | > 10000 | < 22 | > 30 |
| Cc1c(C(=O)N2CCN(C)CC2)c(-c2cccc3ccccc23)cn1Cc1cncn1Cc1ccc2c(c1)OCO2 [Example 24, 2-methyl-1-[1-(3,4-methylenedioxybenzyl)-1H-imidazol-5-ylmethyl]-3-(4-methylpiperazin-1-yl)carbonyl-4-(naphthalen-1-yl)-1H-pyrrole] | < 7 | < 10000 | < 4.45 | > 25 |
| CCSc1c(C(=O)N2CCN(C)CC2)c(-c2cccc3ccccc23)cn1Cc1cncn1Cc1ccc2c(c1)OCO2 [Example 25, 2-ethylthio-1-[1-(3,4-methylenedioxybenzyl)-1H-imidazol-5-ylmethyl]-3-(4-methylpiperazin-1-yl)carbonyl-4-(naphthalen-1-yl)-1H-pyrrole] | < 6 | < 5000 | < 2 | < 10 |
| COCCN(C)C(=O)c1cn(Cc2c(C)ncn2CCCOCc2ccccc2)cc1-c1cccc2ccccc12 [Example 30, 1-[1-(3-benzyloxypropyl)-4-methyl-1H-imidazol-5-ylmethyl]-3-[N-(2-methoxyethyl)-N-methyl]carbamoyl-4-(naphthalen-1-yl)-1H-pyrrole] | < 2.1 | < 10000 | < 5 | < 12.5 |

The next lines start with the values.

| IC50 [1] [nM] | IC50 [2] [nM] | IC50 [3] [nM] | IC50 [4] [nM] | Structure (SMILES) |
| --- | --- | --- | --- | --- |
| < 2.3 | > 10000 | < 1.5 | > 25 | Cc1ncn(Cc2ccc3c(c2)OCO3)c1Cn1cc(C(=O)N2CCN(C)CC2)c(-c2cccc3ccccc23)c1 [Example 16, 1-[4-methyl-1-(3,4-methylenedioxybenzyl)-1H-imidazol-5-ylmethyl]-3-(4-methylpiperazin-1-yl)carbonyl-4-(naphthalen-1-yl)-1H-pyrrole] |
| < 6.4 | > 10000 | < 1.8 | > 25 | CN1CCN(C(=O)c2cn(Cc3cnc(N)n3Cc3ccc4c(c3)OCO4)cc2-c2cccc3ccccc23)CC1 [Example 17, 1-[2-amino-1-(3,4-methylenedioxybenzyl)-1H-imidazol-5-ylmethyl]-3-(4-methylpiperazin-1-yl)carbonyl-4-(naphthalen-1-yl)-1H-pyrrole] |
| < 12 | > 10000 | < 3.5 | > 25 | CSc1ncc(Cn2cc(C(=O)N3CCN(C)CC3)c(-c3cccc4ccccc34)c2)n1Cc1ccc2c(c1)OCO2 [Example 18, 1-[1-(3,4-methylenedioxybenzyl)-2-methylthio-1H-imidazol-5-ylmethyl]-3-(4-methylpiperazin-1-yl)carbonyl-4-(naphthalen-1-yl)-1H-pyrrole] |
| < 30 | > 10000 | < 2.7 | > 25 | CN1CCN(C(=O)c2cn(Cc3c(N)ncn3Cc3ccc4c(c3)OCO4)cc2-c2cccc3ccccc23)CC1 [Example 22, 1-[4-amino-1-(3,4-methylenedioxybenzyl)-1H-imidazol-5-ylmethyl]-3-(4-methylpiperazin-1-yl)carbonyl-4-(naphthalen-1-yl)-1H-pyrrole] |
| < 6.5 | > 10000 | < 2 | < 25 | COc1ccccc1CCn1c(Cn2cc(C(=O)N3CCN(C)CC3)c(-c3cccc4ccccc34)c2)cnc1C [Example 26, 1-[1-(2-methoxyphenethyl)-2-methyl-1H-imidazol-5-ylmethyl]-3-(4-methylpiperazin-1-yl)carbonyl-4-(naphthalen-1-yl)-1H-pyrrole] |
| > 20 | > 10000 | < 3 | < 25 | CCOCCCn1c(Cn2cc(C(=O)N3CCN(C)CC3)c(-c3cccc4ccccc34)c2)cnc1C [Example 27, 1-[1-(3-ethoxypropyl)-2-methyl-1H-imidazol-5-ylmethyl]-3-(4-methylpiperazin-1-yl)carbonyl-4-(naphthalen-1-yl)-1H-pyrrole] |
| < 3.2 | < 10000 | < 2.2 | < 6.25 | CCOCCCn1cnc(C)c1Cn1cc(C(=O)N2CCN(C)CC2)c(-c2cccc3ccccc23)c1 [Example 28, 1-[1-(3-ethoxypropyl)-4-methyl-1H-imidazol-5-ylmethyl]-3-(4-methylpiperazin-1-yl)carbonyl-4-(naphthalen-1-yl)-1H-pyrrole] |
| < 2.7 | < 10000 | < 2.45 | < 6.25 | Cc1ncn(CCCOCc2ccccc2)c1Cn1cc(C(=O)N2CCN(C)CC2)c(-c2cccc3ccccc23)c1 [Example 29, 1-[1-(3-benzyloxypropyl)-4-methyl-1H-imidazol-5-ylmethyl]-3-(4-methylpiperazin-1-yl)carbonyl-4-(naphthalen-1-yl)-1H-pyrrole] |
